# Reference: patent US8476194B2
# What was measured:
# Assay type in all cases: cell-based
# [1] = tested on: Leptosphaeria nodorum (LEPTNO); assay: In vitro fungitoxicity assay against Leptosphaeria nodorum (LEPTNO) in copper-minus and copper-plus medium; conditions: CuCl2 10 μM, no test compound, across experiments
# Phytophthora capsici = assay: In vitro fungitoxicity assay against Phytophthora capsici in copper-minus AS and copper-plus AS medium
# Ustilago maydis = assay: In vitro fungitoxicity assay against Ustilago maydis in copper-minus and copper-plus medium; conditions: 1 μg/mL, calculated with Colby formula
Compound,LEPTNO % Inhn. attributed to copper chloride alone [1] [%],"% Inhn attributed to copper chloride alone (Phytophthora capsici; CuCl2 50 uM, no test compound, across experiments) [%]","% Inhn Plus copper Predicted (Phytophthora capsici; 0.050 μg/mL, calculated with Colby formula) [%]",% Inhn. Plus copper Predicted (Ustilago maydis) [%]
"[Cl][Cu][Cl] [CuCl2, copper chloride]",7.1 ± 6.0,4.5 ± 7.9,–,–
C/C(=N\NC(=O)c1ccc(Cl)cc1)c1cc(F)cc(F)c1O [Compound 96],–,–,7.2,53.6
